{
  "source": "the METLIN SMRT retention time set (Domingo-Almenara et al. 2019)",
  "data": [
    {"assay": "gradient 5% acetonitrile 3 min, to 50% in 2 min, to 85% in 15 min, held 3 min, 100 µL/min", "conditions": "column: Zorbax Extend-C18 2.1 x 50 mm; eluents: water / acetonitrile, 0.1% formic acid", "outline": "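Retention time was recorded from adduct peaks, which were picked computationally and each inspected manually. Pure standards ran in mixtures of ~100 molecules on HPLC coupled to a quadrupole time-of-flight mass spectrometer, in positive and negative ionization mode, through a Zorbax Extend-C18 column (2.1 × 50 mm, 1.8 μm) at 100 μL/min. Eluents were water and acetonitrile, each with 0.1% formic acid.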", "units": {"RP-LC retention time": "s"}, "values": [
      {"smiles": "CC1=C(c2ccccc2)S(=O)(=O)N=C1N1CCCN(C(=O)CC2CCCC2)CC1", "RP-LC retention time": 861},
      {"smiles": "COC(=O)c1ccc(NC(=O)N(C)CCc2noc(-c3ccccc3)n2)cc1", "RP-LC retention time": 840},
      {"smiles": "O=C(Cc1ccc(Br)cc1)NC1CCN(c2cc(-c3ccc(F)cc3)[nH]n2)C1", "note": "(stereo unspecified)", "RP-LC retention time": 780},
      {"smiles": "COc1ccccc1N1CCN(CCCNS(=O)(=O)c2ccc3c(c2)CCCC(=O)N3)CC1", "RP-LC retention time": 616},
      {"smiles": "O=C(Nc1cccc(Cl)c1F)N1CCC(N2CC(F)(F)C[C@H]2COCC2CC2)CC1", "RP-LC retention time": 762},
      {"smiles": "CC(=O)c1ccc(NC(=O)c2cnn(-c3ccc(Br)cc3)c2)cc1", "RP-LC retention time": 948},
      {"smiles": "O=C(c1cnc2ccccc2n1)N1CCN(Cc2ccsc2)CC1", "RP-LC retention time": 556},
      {"smiles": "CCOc1ccccc1CNC(=O)C1CCCN(c2nnc(C)c3c(C)n(-c4ccccc4)nc23)C1", "note": "(stereo unspecified)", "RP-LC retention time": 774},
      {"smiles": "CCN(CC)c1ncnc2c(-c3ccccc3)cn(CC(=O)NCCc3ccc(OC)c(OC)c3)c12", "RP-LC retention time": 726},
      {"smiles": "CCOC(=O)C1CCCN(C(=O)c2ccc(-c3csc(CC)n3)cc2)C1", "note": "(stereo unspecified)", "RP-LC retention time": 925},
      {"smiles": "O=C(CCn1nnc2cc(-c3noc(Cc4ccc(Cl)cc4)n3)ccc21)N1CCCC1", "RP-LC retention time": 921},
      {"smiles": "Cc1cc(C)c2c(n1)SCC(=O)N2CC(=O)NCCN(C)C1CCCCC1", "RP-LC retention time": 585},
      {"smiles": "CC1CCN(c2cc(-n3cnc(C(=O)NC4CCCC4)c3)ncn2)CC1", "RP-LC retention time": 968},
      {"smiles": "O=C(Cn1nc2c(N3CCCCCC3)nccn2c1=O)Nc1ccc(Cl)cc1F", "RP-LC retention time": 786},
      {"smiles": "CCOCCCNCc1ccc(-c2ccccc2F)o1", "RP-LC retention time": 672},
      {"smiles": "O=C(NCc1ccc2c(c1)OCO2)C1CCCN(c2ncnc3c2nc2n3CCCCC2)C1", "note": "(stereo unspecified)", "RP-LC retention time": 750},
      {"smiles": "Cc1ccc(S(=O)(=O)N2CCC3(CC2)CC(C)(O)CCO3)cc1F", "note": "(stereo unspecified)", "RP-LC retention time": 846},
      {"smiles": "CN(C)S(=O)(=O)c1ccc(-c2nnc(C(=O)NCc3cccc(Cl)c3)o2)cc1", "RP-LC retention time": 969},
      {"smiles": "O=C(c1ccccc1Cl)N1CCN(c2cc(-c3ccccc3)[nH]n2)CC1", "RP-LC retention time": 804},
      {"smiles": "Cc1cc(C(=O)Nc2c(F)c(F)c(F)c(F)c2F)n(-c2ccccc2)n1", "RP-LC retention time": 917},
      {"smiles": "COc1ccc(NC(=O)N2CCN(c3cc(C)nc(N4CCCC4)n3)CC2)c(C)c1", "RP-LC retention time": 692},
      {"smiles": "Cc1c(C(=O)N2CCN(c3ccccn3)CC2)sc2nc3n(c(=O)c12)CCC3", "RP-LC retention time": 571},
      {"smiles": "Cc1noc(C)c1CC(=O)N1CC(c2noc(C3CCCN3C)n2)C1", "note": "(stereo unspecified)", "RP-LC retention time": 594},
      {"smiles": "COc1ccc(C(=O)CSc2nnc3sc4ccccc4n23)cc1OC", "RP-LC retention time": 768},
      {"smiles": "CCOC(=O)N1CCN(C(=O)Cn2c(-c3cccn(C)c3=O)nc3ccccc32)CC1", "RP-LC retention time": 553},
      {"smiles": "CCN(CC)S(=O)(=O)c1ccc2c(c1)N(CC(=O)N1CCCCCC1)C(=O)C1CCCCN21", "note": "(stereo unspecified)", "RP-LC retention time": 996},
      {"smiles": "Cc1nc(CCNC(=O)[C@H]2CCCN2C(=O)c2ccc(Cl)cc2)cs1", "RP-LC retention time": 674},
      {"smiles": "COc1ccc(/C=C2\\CCCc3ccccc3C2=O)cc1", "RP-LC retention time": 1140},
      {"smiles": "COCc1ncc(C)n1CC1CN(C(=O)C2(c3ccccc3)CC2)C1", "RP-LC retention time": 621},
      {"smiles": "CCN(CC)C(=O)N1CCCC1Cc1noc(-c2cccnc2)n1", "note": "(stereo unspecified)", "RP-LC retention time": 712},
      {"smiles": "Cc1ccc(-c2noc(CSc3nc4cc5c(cc4c(=O)n3Cc3ccccc3)OCO5)n2)cc1", "RP-LC retention time": 1300},
      {"smiles": "Cc1ccc2oc(N3CCN(C(=O)Cc4ccccc4)CC3)nc2n1", "RP-LC retention time": 620},
      {"smiles": "CCc1cccc(NC(=O)C2CCN(S(=O)(=O)c3cn(CC)cn3)CC2)c1", "RP-LC retention time": 794},
      {"smiles": "COc1cccc(CN2CCn3c(nnc3[C@@H]3C[C@@H](O)CN3C)C2)c1", "RP-LC retention time": 574},
      {"smiles": "CN(CCCC(=O)O)S(=O)(=O)c1ccc(N)cc1", "RP-LC retention time": 598},
      {"smiles": "Cc1cc(C(=O)N(CCc2cccs2)Cc2cccnc2)c(C)o1", "RP-LC retention time": 619},
      {"smiles": "CCOc1cc(-c2ccc(F)cc2)nc2ccc(NS(=O)(=O)c3cccc(C#N)c3)cc12", "RP-LC retention time": 816},
      {"smiles": "CC(C)C(=O)N1CCc2c(c(-c3nncn3C(C)C)nn2C)C1", "RP-LC retention time": 639},
      {"smiles": "COC(=O)c1cc(S(=O)(=O)N2CCCC2C(=O)Nc2cccc(OC)c2)cn1C", "note": "(stereo unspecified)", "RP-LC retention time": 826},
      {"smiles": "CCOc1cccc(C(=O)Nc2nc(-c3ccc(OC)c(Br)c3)cs2)c1", "RP-LC retention time": 1280},
      {"smiles": "COc1ccc(CNC(=O)C2(C)CCCN(S(=O)(=O)c3ccccc3F)C2)cc1", "note": "(stereo unspecified)", "RP-LC retention time": 900},
      {"smiles": "CCc1ccccc1N1C(=O)c2c(C(=O)OC)ncn2CC1(C)C(=O)NC1CCCC1", "note": "(stereo unspecified)", "RP-LC retention time": 733},
      {"smiles": "Cc1ccc(-c2noc(CN3N=NC4C(=O)N(c5ccc6c(c5)CCC6)C(=O)C43)n2)cc1", "note": "(stereo unspecified)", "RP-LC retention time": 1110},
      {"smiles": "CCn1c(=O)sc2cc(S(=O)(=O)N3CCC(C(=O)NCc4ccco4)CC3)ccc21", "RP-LC retention time": 792},
      {"smiles": "CC(=O)N1CCN(c2nc3c(s2)CC(C(=O)NCc2cc(F)cc(F)c2)CC3)CC1", "note": "(stereo unspecified)", "RP-LC retention time": 597},
      {"smiles": "COc1ccc(-c2csc(C)n2)cc1S(=O)(=O)N1CC=C(c2ccccc2)CC1", "RP-LC retention time": 1130},
      {"smiles": "CCCNC(=O)C1CCCN(c2nc3ncn(CC(=O)Nc4ccc(F)c(F)c4)c(=O)c3s2)C1", "note": "(stereo unspecified)", "RP-LC retention time": 708},
      {"smiles": "O=C(Cn1ccc2ccc(N3CCOCC3)nc21)NCc1cccc(Br)c1", "RP-LC retention time": 918},
      {"smiles": "Cc1cc(N2CCCC2)n2nc(CN3CCN(c4ccc(Cl)cc4)CC3)nc2n1", "RP-LC retention time": 654},
      {"smiles": "COCc1c(C(=O)O)nnn1-c1ccc(F)c(C)c1", "RP-LC retention time": 723},
      {"smiles": "CCOC(=O)c1c(C)[nH]c(CCC(=O)NCCC(C)C)c1C", "RP-LC retention time": 816},
      {"smiles": "COCc1nc2cccnc2n1C1CCN(C(=O)Nc2ccccc2C(=O)OC)CC1", "RP-LC retention time": 784},
      {"smiles": "O=C(C1CCN(c2nnc(-c3ccccc3)o2)CC1)N1CCN(c2ccccc2)CC1", "RP-LC retention time": 857},
      {"smiles": "COc1ccc(-c2ccc(N3CCCC(C(=O)NCc4cccs4)C3)nn2)cc1", "note": "(stereo unspecified)", "RP-LC retention time": 613},
      {"smiles": "CCn1cc(S(=O)(=O)N2CCCCC2CCn2cc(-c3ccccc3)nn2)cn1", "note": "(stereo unspecified)", "RP-LC retention time": 804},
      {"smiles": "CCOC(=O)Cn1c(C2CC(=O)N(c3ccccc3F)C2)nc2ccccc21", "note": "(stereo unspecified)", "RP-LC retention time": 746},
      {"smiles": "O=S(=O)(c1ccc2c(c1)CCC2)N1CCC(c2noc(-c3cccc(F)c3)n2)CC1", "RP-LC retention time": 1260},
      {"smiles": "Cc1ccc(C)c(NC(=O)C2CCCN(c3nc4c(s3)c(C)nn4-c3cccc(F)c3)C2)c1", "note": "(stereo unspecified)", "RP-LC retention time": 1280},
      {"smiles": "CC(C)n1c(SCC(=O)N2CCCCC2)nnc1-c1ccc2c(c1)OCCCO2", "RP-LC retention time": 761},
      {"smiles": "CC(C)(C)c1ccc(OCC(O)CN2CCN(C(=O)c3ccccc3)CC2)cc1", "note": "(stereo unspecified)", "RP-LC retention time": 608},
      {"smiles": "CN[C@H]1CN(c2ccc3c(=O)c(C(=O)O)cn(-c4nccs4)c3n2)C[C@@H]1OC", "RP-LC retention time": 599},
      {"smiles": "COc1ccc(C(=O)N2CCC(c3nc4cccnc4n3C)C2)cc1F", "note": "(stereo unspecified)", "RP-LC retention time": 651},
      {"smiles": "Cc1nc2cccnc2n1CCN1CCN(C(=O)Nc2cccc(Br)c2)CC1", "RP-LC retention time": 607},
      {"smiles": "CNC(=O)N1CCc2c(c(-c3nc(-c4ccc(F)cc4)no3)nn2C)C1", "RP-LC retention time": 723},
      {"smiles": "Cc1ccc(N2CC(c3noc(-c4ccc5ccccc5n4)n3)CC2=O)cc1", "note": "(stereo unspecified)", "RP-LC retention time": 899},
      {"smiles": "CN(CC1(C)CCOCC1)C(=O)CCc1c[nH]c2ccccc12", "RP-LC retention time": 772}
    ]}
  ]
}
